Consider one molecule from patent US7105669B1, “Quinazoline derivatives” (AstraZeneca AB, priority 1999, dated 2006).

For assay [1], the target named is T1, aurora2 kinase (Homo sapiens, UniProt O14965).
T1 construct: made in house; host or cells: Spodoptera frugiperda Sf21 insect cells (baculovirus, pFastBac HTc)
T1 sequence (O14965 1-403): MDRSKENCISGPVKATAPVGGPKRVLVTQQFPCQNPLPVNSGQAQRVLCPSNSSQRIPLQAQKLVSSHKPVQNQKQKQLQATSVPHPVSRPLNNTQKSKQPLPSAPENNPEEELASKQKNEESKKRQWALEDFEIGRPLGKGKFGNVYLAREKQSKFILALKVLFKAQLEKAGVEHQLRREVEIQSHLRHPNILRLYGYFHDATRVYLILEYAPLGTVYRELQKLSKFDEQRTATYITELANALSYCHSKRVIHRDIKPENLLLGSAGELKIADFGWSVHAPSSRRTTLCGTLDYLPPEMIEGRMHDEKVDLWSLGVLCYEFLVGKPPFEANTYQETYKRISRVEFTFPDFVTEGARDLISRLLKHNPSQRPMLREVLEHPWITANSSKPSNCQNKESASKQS
Description: In vitro aurora2 kinase inhibition test. Format: biochemical.

In assay [2] the test system is MCF-7 cells. The experiment in a line: In vitro cell proliferation assay, Assay 1 (CyQUANT cell density). Format: cell-based. Conditions: Homo sapiens, MCF7, 72 h, MCF-7, 3 days with compound, read-out: concentration giving 50% inhibition of cell proliferation. The source says: (§1) These and other assays can be used to determine the ability of a test compound to inhibit the growth of adherent mammalian cell lines, for example the human tumour cell line MCF7.
MCF-7 (ATCC HTB-22) or other adherent cells were typically seeded at 1×10^3 cells per well (excluding the peripheral wells) in DMEM (Sigma Aldrich) without phenol red, plus 10% foetal calf serum, 1% L-glutamine and 1% penicillin/streptomycin in 96 well tissue culture treated clear plates (Costar). The following day (day 1), the media was removed from a no treatment control plate and the plate stored at −80° C. The remaining plates were dosed with compound (diluted from 10 mM stock in DMSO using DMEM (without phenol red, 10% FCS, 1% L-glutamine, 1% penicillin/streptomycin). Untreated control wells were included on each plate. After 3 days in the presence/absence of compound (day 4) the media was removed and the plates stored at −80° C. Twenty four hours later the plates were thawed at room temperature and cell density determined using the CyQUANT cell proliferation assay kit (c-7026/c-7027 Molecular Probes Inc.) according to manufacturers directions. Briefly, 200 μl of a cell lysis/dye mixture (10 μl of 20× cell lysis buffer B, 190 μl of sterile water, 0.25 μl of CYQUANT GR dye) was added to each well and the plates incubated at room temperature for 5 minutes in the dark. […]

The subject of assay [3] is MCF7 cells. Description: In vitro cell cycle analysis assay (FACS, propidium iodide). Format: cell-based, human. Conditions: 12.76 μM, 24 hours. How it is done: This assay determines the ability of a test compound to arrest cells in specific phases of the cell cycle. Many different mammalian cell lines could be used in this assay and MCF7 cells are included here as an example. MCF-7 cells were seeded at 3×10^5 cells per T25 flask (Costar) in 5 ml DMEM (no phenol red 10% FCS, 1% L-glutamine 1% penicillin/streptomycin). Flasks were then incubated overnight in a humidified 37° C. incubator with 5% CO2. The following day 1 ml of DMEM (no phenol red 10% FCS, 1% L-glutamine 1% penicillin/streptomycin) carrying the appropriate concentration of test compound solubilised in DMSO was added to the flask. A no compound control treatments was also included (0.5% DMSO). The cells were then incubated for a defined time (usually 24 hours) with compound. After this time the media was aspirated from the cells and they were washed with 5 ml of prewarmed (37° C.) sterile PBSA, then detached from the flask by brief incubation with trypsin and followed by resuspension in 10 ml of 1% Bovine Serum Albumin (BSA, Sigma-Aldrich Co.) in sterile PBSA. The samples were then centrifuged at 2200 rpm for 10 min. The supernatant was aspirated and the cell pellet was resuspended in 200 μl of 0.1% (w/v) Tris sodium citrate, 0.0564% (w/v) NaCl, 0.03% (v/v) Nonidet NP40, [pH 7.6]. Propridium Iodide (Sigma Aldrich Co.) was added to 40 μg/ml and RNAase A (Sigma Alrich Co.) to 100 μg/ml. The cells were then incubated at 37° C. for 30 minutes. The samples were centrifuged at 2200 rpm for 10 min, the supernatant removed and the remaining pellet (nuclei) resuspended in 200 μl of sterile PBSA. […] The samples were then transferred to LPS tubes and DNA content per cell analysed by Fluorescence activated cell sorting (FACS) using a FACScan flow cytometer (Becton Dickinson). Typically 25000 events were counted and recorded using CellQuest v1.1 software (Verity Software). Cell cycle distribution of the population was calculated using Modfit software (Verity Software) and expressed as percentage of cells in G0/G1, S and G2/M phases of the cell cycle. […]

Assay [4] deals with MCF-7 cells. Description: In vitro cell proliferation assay, Assay 2 (BrdU incorporation). To be noted: Homo sapiens, MCF7; MCF-7, 48 hours with compound, 2 hour BrdU labelling; read-out: concentration giving 50% inhibition of BrdU incorporation. Format: cell-based.
From the text: as §1
This assay determines the ability of a test compound to inhibit the incorporation of the thymidine analogue, 5′-bromo-2′-deoxy-uridine (BrdU) into cellular DNA. MCF-7 or other adherent cells were typically seeded at 0.8×10^4 cells per well in DMEM (Sigma Aldrich) without phenol red, plus 10% foetal calf serum, 1% L-glutamine and 1% penicillin/streptomycin (50 μl/well) in 96 well tissue culture treated 96 well plates (Costar) and allowed to adhere overnight. […] The optical density of the wells was then determined at 690 nm wavelength using a Titertek Multiscan plate reader. […]
On the technique in general: Dividing cells build labelled thymidine or BrdU into new DNA.

With `COc1cc2ncnc(Nc3ccc(/C=C/C(=O)NC4CCCC(C)C4)cc3)c2cc1OC` (stereo not drawn) [Compound 18], the IC50 in assay [1] worked out at 117 nM. The IC50 in assay [2] was 6380 nM. In addition, in assay [3], the “% Cells in G1” value turned out to be 30.96%, the “% Cells in G2/M” value is 49.62% and the “% Cells in S” value was 19.42%. In addition, the IC50 in assay [4] was 2470 nM.
